How the values were obtained:
[1] = tested on: bone marrow cells; test: In vivo chemoprotection: bone marrow cell count; conditions: for effect on bone marrow cell count, post-treatment: post-treatment per o.s. on day 1, 2, 3 and 4
Procedure: (§1) To examine the immunoprotective effect of MCT or other compounds, mice were pre-treated orally at day-3, -2 and -1 or treated intravenously at day 0 with the test compound. Mice were sacrificed at day +5 by cardiac puncture and cervical dislocation. Then, cell suspensions were prepared from thymus, spleen and bone marrow as follow.
(§2) Tissues were crushed in PBS buffer and contaminating erythrocytes were lysed in ACK buffer (155 mM NH4Cl, 12 mM NaHCO3, 0.1 mM EDTA, pH 7.3) for 5 minutes. Cells were then collected by centrifugation and washed three times in PBS and resuspended in tissue culture medium. Cells were counted on a hemacytometer.
(§3) Chemoprotection studies were performed as described in example 16 except that mice were (post)-treated with MCT, sodium caprylate, sodium caprate or capric acid per o.s. on day 1, 2, 3 and 4.

[2] = tested on: spleen cells; test: In vivo chemoprotection: spleen cell count
Procedure: as §1, §2, §3

[3] = tested on: spleen cell subsets; test: Spleen immunophenotyping (flow cytometry of cell surface markers); assay type: in vivo, C57BL/6 mice; conditions: CY (200 mg/kg) immunosuppressed mice
Procedure: (§4) Female, 6- to 8-week old, C57BL/6 mice were pre-treated on day -3, -2 and -1 per o.s. or intravenously at day 0 with different concentrations of MCT. Immunophenotyping was also performed on immunosuppressed animals. […] Mice were sacrificed on day 5 by cardiac puncture. Blood and spleens were collected and cell suspensions prepared and erythrocytes lysed in ACK buffer (155 mM NH4Cl, 12 mM NaHCO3, 0.1 mM EDTA, pH 7.3) for 5 minutes. The cells were washed three times in PBS, pH 7.4 and resuspended in tissue culture medium. The cells were then incubated for 45 minutes on ice with fluorescein isothiocyanate (FITC) or phycoerythrin (PE) conjugated cell surface marker according to the manufacturer's (Gibco/BRL, Cedarlane, Boehringer Mannheim) recommendation. The cells were then washed in PBS, fixed with 1% paraformaldehyde and analyzed with a Coulter XL flow cytometer. Analysis of the cell subsets was undertaken by determination of standard cell surface markers which were as follows: TCR (T-cell receptor), CD4 (T helper), CD8 (T cytotoxic/suppressor), CD11b (macrophage), NK (NK cells) and Ly5 (B-cells). Bone marrow cells were obtained as described in example 15. Cells were stained by a 45 minutes incubation of FITC or PE conjugated cell surface marker according to the manufacturer's recommendation. The cells were then washed in PBS, fixed with 1% paraformaldehyde and analyzed with a Coulter XL flow cytometer. Analysis of the cell subsets was undertaken by determination of standard cell surface markers which were as follows: CD34 (hematopoietic progenitor cells), CD41 (platelets, megakaryocytes), CD13 (myelomonocytic stem cells, myelocytes, promonocytes) and CD38 (lymphoid stem cells, pro-B, pre-B).

[4] = tested on: blood cell subsets; test: Blood immunophenotyping (flow cytometry of cell surface markers); assay type: in vivo, C57BL/6 mice; conditions: CY (200 mg/kg) immunosuppressed mice; for Blood Immunophenotyping: LY5−TCR− cell subset (relative percentage): Table 14
Procedure: as §4

[5] = tested on: bone marrow cell subsets; test: Bone marrow immunophenotyping (CD34, CD13, CD41, CD38); assay type: in vivo, C57BL/6 mice; conditions: for Bone marrow immunophenotyping: CY-treated mice, test substances compared to cyclophosphamide alone; for % Cells CD13+ (bone marrow) / % Cells CD34+ (bone marrow) / % Cells CD38+ (bone marrow) / % Cells CD41+ (bone marrow): Table 15, CY (200 mg/kg) immunosuppressed mice, CY + test substance (Cyclophosphamide line = CY alone)
Procedure: as §4
The effect of MCT, sodium caprylate, sodium caprate on bone marrow immunophenotyping was assessed by the protocol described in example 26.

[6] = CY-treated mice, protocol of example 16 (pre-treatment)
[7] = Table 5, CY-treated mice, CY + test compound (CY line = CY alone), protocol of example 16
[8] = Table 11, CY + capric acid 3.125 μMole post-treatment per o.s. day 1, 2, 3 and 4
[9] = Table 11, CY + capric acid 6.25 μMole post-treatment per o.s. day 1, 2, 3 and 4
[10] = Table 11, CY + capric acid 12.5 μMole post-treatment per o.s. day 1, 2, 3 and 4
[11] = Table 7, CY-treated mice, CY + test compound 6.25 μMole pre-treatment (CY line = CY alone)
[12] = Table 10, CY-treated mice, post-treatment per o.s. on day 1, 2, 3 and 4 with test substance 12.5 μM (CY line = CY alone)
[13] = Table 9, CY-immunosuppressed mice, CY + test compound 6.25 μMole (CY line = CY alone)
[14] = Table 6, CY-treated mice, CY + test compound (CY line = CY alone), protocol of example 16
[15] = Table 16, CY-treated mice, CY + test compound (CY line = CY alone), protocol of example 16
[16] = Table 17, CY-treated mice, CY + test compound (CY line = CY alone), protocol of example 16

O=c1[nH]cc(F)c(=O)[nH]1 [5-FU, 5-fluorouracil, reference compound]
effect of cytotoxic drug on bone marrow cell count compared to the control ([1]; mouse, in vivo, iv): depressed the bone marrow cell count compared to the control
effect of cytotoxic drug on spleen cell count compared to the control ([2]; mouse, in vivo, iv): reduce significantly the spleen cell count compared to the control

CCCCCCCCCC(=O)O [capric acid]
effect on bone marrow cell count, post-treatment ([1]; CY-treated mice): weak increase in bone marrow cell count
effect on bone marrow cell count compared to cyclophosphamide treated mice [1, 6]: significantly enhances the bone marrow cell counts
Bone Marrow # Cells (×10^6) [1, 7]: 32 ± 2.71 ×10^6
Bone Marrow # Cells (×10^6) [1, 8]: 37 ± 7.8 ×10^6
Bone Marrow # Cells (×10^6) [1, 9]: 38 ± 4.6 ×10^6
Bone Marrow # Cells (×10^6) [1, 10]: 38 ± 7.4 ×10^6
effect on spleen cell count, post-treatment ([2]; CY-treated mice, post-treatment per o.s. on day 1, 2, 3 and 4): significant increase in spleen cell count
effect on spleen cell count compared to cyclophosphamide treated mice [2, 6]: No significant effect
Spleen # Cells (×10^6) [2, 7]: 27 ± 8.4 ×10^6
Spleen # Cells (×10^6) [2, 8]: 31 ± 8.7 ×10^6
Spleen # Cells (×10^6) [2, 9]: 25 ± 6.3 ×10^6
Spleen # Cells (×10^6) [2, 10]: 36 ± 7.8 ×10^6
Spleen Immunophenotyping: effect compared to cyclophosphamide alone (words) [3]: no significant effect compared to cyclophosphamide alone
Spleen Immunophenotyping: effect compared to cyclophosphamide alone (words) ([3]; listed as Capric acid): No significant effect
Blood Immunophenotyping: effect compared to cyclophosphamide alone (words) [4]: significantly increase the relative percentage of LY5-TCR- on blood
Blood Immunophenotyping: LY5−TCR− cell subset (relative percentage) ([4]; compound 6.25 μM): 61.52 ± 5.16
Blood Immunophenotyping: LY5−TCR− cell subset (relative percentage) ([4]; compound 12.5 μM): 70.79 ± 3.95

CCCCCCCC(=O)O [caprylic acid]
Bone Marrow # Cells (×10^6) [1, 7]: 26 ± 3.58 ×10^6
effect on spleen cell count compared to cyclophosphamide treated mice [2, 6]: No significant effect
Spleen # Cells (×10^6) [2, 7]: 28 ± 6.4 ×10^6

CCCCCCCCCC(=O)OCC [ethyl caprate]
Bone Marrow # Cells (×10^6) ([1]; Table 18, CY-treated mice, CY + test compound (CY line = CY alone), protocol of example 16): 27.5 ± 4.4 ×10^6

CCCCCCCCCCCC(=O)O [lauric acid]
effect on bone marrow cell count compared to cyclophosphamide treated mice [1, 6]: Significant increases in proliferation or protection of bone marrow and spleen cell counts
Bone Marrow # Cells (×10^6) [1, 11]: 42 ± 7.8 ×10^6
effect on spleen cell count compared to cyclophosphamide treated mice [2, 6]: Significant increases in proliferation or protection of bone marrow and spleen cell counts
Spleen # Cells (×10^6) [2, 11]: 32 ± 5 ×10^6

CCCCCCCCC(=O)O [nonanoic acid]
effect on bone marrow cell count compared to cyclophosphamide treated mice [1, 6]: weak (not significant) activity on immune cell counts
Bone Marrow # Cells (×10^6) [1, 11]: 36 ± 5.6 ×10^6
effect on spleen cell count compared to cyclophosphamide treated mice [2, 6]: weak (not significant) activity on immune cell counts
Spleen # Cells (×10^6) [2, 11]: 28 ± 4 ×10^6

CCCCCCCCCC(=O)[O-].[Na+] [sodium caprate]
effect on bone marrow cell count, post-treatment ([1]; CY-treated mice): significant increase in bone marrow cell count
effect on bone marrow cell count compared to cyclophosphamide treated mice [1, 6]: significant increase in proliferation or protection of bone marrow cell count
Bone Marrow # Cells (×10^6) [1, 12]: 29 ± 4.45 ×10^6
Spleen # Cells (×10^6) [2, 12]: 28 ± 6.3 ×10^6
Bone marrow immunophenotyping [5]: amplifies the number of CD13+ lineage
% Cells CD13+ (bone marrow) [5]: 4.7 ± 1.7%
% Cells CD34+ (bone marrow) [5]: 9.1 ± 3.1%
% Cells CD38+ (bone marrow) [5]: 44.3 ± 22.8%
% Cells CD41+ (bone marrow) [5]: 3.7 ± 0.7%

CCCCCC(=O)[O-].[Na+] [sodium caproate]
Bone Marrow # Cells (×10^6) [1, 13]: 39 ± 17.9 ×10^6
effect on bone marrow cell count compared to cyclophosphamide treated mice ([1]; mouse, in vivo): weak (not significant) activity
Spleen # Cells (×10^6) [2, 13]: 35 ± 10.6 ×10^6
effect on spleen cell count compared to cyclophosphamide treated mice ([2]; mouse, in vivo): weak (not significant) activity
Blood Immunophenotyping: effect compared to cyclophosphamide alone (words) [4]: significantly increase the relative percentage of LY5-TCR- on blood
Blood Immunophenotyping: LY5−TCR− cell subset (relative percentage) ([4]; compound 6.25 μM): 52.43 ± 10.16

CCCCCCCC(=O)[O-].[Na+] [sodium caprylate]
effect on bone marrow cell count, post-treatment ([1]; CY-treated mice): significant increase in bone marrow cell count
effect on bone marrow cell count compared to cyclophosphamide treated mice [1, 6]: significant increase in proliferation or protection of bone marrow cell count
Bone Marrow # Cells (×10^6) [1, 12]: 26 ± 5.33 ×10^6
Spleen # Cells (×10^6) [2, 12]: 36 ± 12.5 ×10^6
Bone marrow immunophenotyping [5]: amplifies the number of CD13+ lineage
% Cells CD13+ (bone marrow) [5]: 4.9 ± 1.2%
% Cells CD34+ (bone marrow) [5]: 11.2 ± 1.3%
% Cells CD38+ (bone marrow) [5]: 36 ± 9.7%
% Cells CD41+ (bone marrow) [5]: 4.6 ± 1.3%

CCCCCCCCCC(=O)OCC(COC(=O)CCCCCCCCC)OC(=O)CCCCCCCCC [tricaprin]
effect on bone marrow cell count compared to cyclophosphamide treated mice [1, 6]: efficacious in the proliferation or protection of bone marrow cell counts
Bone Marrow # Cells (×10^6) [1, 14]: 31 ± 3.8 ×10^6
effect on spleen cell count compared to cyclophosphamide treated mice [2, 6]: No significant effect
Spleen # Cells (×10^6) [2, 14]: 38 ± 6.8 ×10^6

CCCCCC(=O)OCC(COC(=O)CCCCC)OC(=O)CCCCC [tricaproin]
effect on bone marrow cell count compared to cyclophosphamide treated mice [1, 6]: weak (not significant) activity
Bone Marrow # Cells (×10^6) [1, 13]: 29 ± 4.1 ×10^6
effect on spleen cell count compared to cyclophosphamide treated mice [2, 6]: weak (not significant) activity
Spleen # Cells (×10^6) [2, 13]: 37 ± 8.7 ×10^6

CCCCCCCCCC(=O)NC(COC(=O)CCCCCCCCC)COC(=O)CCCCCCCCC [tridecanoyl serinol, 1,2,3-O,N,O-Tridecanoyl serinol]
effect on bone marrow cell count compared to cyclophosphamide treated mice [1, 6]: No significant effect
Bone Marrow # Cells (×10^6) [1, 15]: 28 ± 4.6 ×10^6
effect on spleen cell count compared to cyclophosphamide treated mice [2, 6]: significantly enhances the spleen cell counts
Spleen # Cells (×10^6) [2, 15]: 42 ± 8.4 ×10^6

CCCCCCCCCC(=O)OC1C(C)OC(OC)C(OC(=O)CCCCCCCCC)C1OC(=O)CCCCCCCCC [α-methyl tridecanoyl-L-fucopyranose, α-O-Methyl-2,3,4,—O,O,O-tridecanoyl-L-fucopyranose]
Bone Marrow # Cells (×10^6) [1, 16]: 30.4 ± 9.3 ×10^6
effect on bone marrow cell count compared to cyclophosphamide treated mice ([1]; mouse, in vivo): lack of activity

CCCCCCCCCC(=O)OC1C(C)OC(OC)C(OC(=O)CCCCCCCCC)C1OC(=O)CCCCCCCCC [β-methyl tridecanoyl-L-fucopyranose, β-O-Methyl-2,3,4,—O,O,O-tridecanoyl-L-fucopyranose]
Bone Marrow # Cells (×10^6) [1, 16]: 34.6 ± 8.5 ×10^6
effect on bone marrow cell count compared to cyclophosphamide treated mice ([1]; mouse, in vivo): weak (not significant) activity on bone marrow cell counts

From US8487001B2, “Medium-chain length fatty acids, glycerides and analogues as neutrophil survival and activation factors” (ProMetic BioSciences Inc., priority 2001, dated 2013)
